Assays:
sGC α1/β1 heterodimer = sGC α1/β1 heterodimer (Homo sapiens (Human), UniProt Q02108+Q02153); test: Cell-based sGC functional assay (cyclic GMP assay for sGC activator: CASA assay); set-up: % Activation: concentration or dose not given beside the values; conditions: CHO-K1/sGC cells; for Emax: CHO-K1, activity expressed as percentage of compound A (standard), read-out: % Activation; for EC50: inflection point, 4P fit, read-out: IP
How it was run: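 CHO-K1 cells stably expressing human sGC α1/β1 were pre-incubated 30 min at 25° C with or without 1 μM DETA-NO, then exposed to compound for 1 hr at 37° C with 0.5 mM IBMX and 2.5% DMSO final. Intracellular cGMP was measured by HTRF, expressed as % of reference sGC-HDA maximum; inflection point and maximum fold induction came from 4-parameter fits.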

[1] = molecular target: human recombinant sGC enzyme (Homo sapiens (Human), UniProt Q02108+Q02153); test: Size Exclusion Chromatography (SEC) competition binding assay using [3H] Ex-77B as the radioligand; conditions: [3H] Ex-77B radioligand, 24 hours at 37° C.
How it was run: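 Recombinant human sGC binding measured by competition against tritiated Ex-77B radioligand, with non-specific binding defined by 1 μM unlabeled Ex-77B.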

Row | Structure (SMILES) | Emax (sGC α1/β1 heterodimer) | EC50 (sGC α1/β1 heterodimer) | Ki [1] | % Activation (sGC α1/β1 heterodimer; activity expressed as percentage of compound A (standard))
1 | CC(C)(Cc1coc(C2(C)C(=O)Nc3nc(-c4nn(Cc5ccc(F)cc5)c5cc(Cl)ccc45)nc(N)c32)n1)C(=O)O (stereo not shown) [Example 173A, 3-(2-{4-amino-2-[6-chloro-1-(4-fluorobenzyl)-1H-indazol-3-yl]-5-methyl-6-oxo-6,7-dihydro-5H-pyrrolo[2,3-d]pyrimidin-5-yl}-1,3-oxazol-4-yl)-2,2-dimethyl-propanoic acid] | 83.4% | 557 nM | 0.252 nM | 
2 | CC1(c2nc(CC(=O)O)co2)C(=O)Nc2nc(-c3nn(Cc4ccccc4F)c4ccccc34)nc(N)c21 (stereo not shown) [Example 203A, (2-{4-amino-2-[1-(2-fluorobenzyl)-1H-indazol-3-yl]-5-methyl-6-oxo-6,7-dihydro-5H-pyrrolo[2,3-d]pyrimidin-5-yl}-1,3-oxazol-4-yl)acetic acid] | 122% | 330 nM | 0.071 nM | 
3 | CC1(c2nc(-c3ccc(C(=O)O)cc3)cs2)C(=O)Nc2nc(-c3nn(Cc4ccccc4F)c4cc(Cl)ccc34)nc(N)c21 (stereo not shown) [Example 165A, 4-(2-{4-amino-2-[6-chloro-1-(2-fluorobenzyl)-1H-indazol-3-yl]-5-methyl-6-oxo-6,7-dihydro-5H-pyrrolo[2,3-d]pyrimidin-5-yl}-1,3-thiazol-4-yl) benzoic acid] | 110% | 48 nM | 0.081 nM | 
4 | CC(C)(Cc1csc([C@]2(C)C(=O)Nc3nc(-c4nn(CCCC(F)(F)F)c5ncccc45)nc(N)c32)n1)C(=O)O [Example 87B, (S)-3-(2-{4-amino-5-methyl-6-oxo-2-[1-(4,4,4-trifluorobutyl)-1H-pyrazolo[3,4-b]pyridin-3-yl]-6,7-dihydro-5H-pyrrolo[2,3-d]pyrimidin-5-yl}-1,3-thiazol-4-yl)-2,2-dimethylpropanoic acid] | 97% | 547 nM | 0.785 nM | 
5 | CC(C)(Cc1csc([C@]2(C)C(=O)Nc3nc(-c4nn(Cc5cccc(F)c5)c5ncccc45)nc(N)c32)n1)C(=O)O [Example 149A, (S)-3-(2-{4-amino-2-[1-(3-fluoro-benzyl)-1H-pyrazolo [3,4-b]pyridin-3-yl]-5-methyl-6-oxo-6,7-dihydro-5H-pyrrolo[2,3-d]pyrimidin-5-yl}-1,3-thiazol-4-yl)-2,2-dimethyl-propanoic acid] | 103% | 111 nM | 0.167 nM | 
6 | CC(C)(Cc1nc(C2(C)C(=O)Nc3nc(-c4nn(Cc5ccccc5F)c5cc(Cl)ccc45)nc(N)c32)cs1)C(=O)O (stereo not shown) [Example 142B, 3-(4-{4-amino-2-[6-chloro-1-(2-fluoro-benzyl)-1H-indazol-3-yl]-5-methyl-6-oxo-6,7-dihydro-5H-pyrrolo[2,3-d]pyrimidin-5-yl}-1,3-thiazol-2-yl)-2,2-dimethyl-propanoic acid] | 109% | 264 nM | 0.183 nM | 
7 | C[C@@]1(c2ccc(CCC(=O)O)cc2)C(=O)Nc2nc(-c3nn(CC4CCCCO4)c4cc(Cl)ccc34)nc(N)c21 (single isomer, unassigned) [Example 6A] | 85% | 1260 nM | 0.13 nM | 
8 | CC(C)(Cn1cc(C2(C)C(=O)Nc3nc(-c4nn(Cc5ccccc5F)c5cc(Cl)ccc45)nc(N)c32)nn1)C(=O)O (single isomer, unassigned) [Example 140A, 3-(4-{4-Amino-2-[6-chloro-1-(2-fluorobenzyl)-1H-indazol-3-yl]-5-methyl-6-oxo-6,7-dihydro-5H-pyrrolo[2,3-d]pyrimidin-5-yl}-1H-1,2,3-triazol-1-yl)-2,2-dimethylpropanoic acid] |  | 798 nM | 0.227 nM | 
9 | CC(C)(Cc1coc(C2(C3CC3)C(=O)Nc3nc(-c4nn(Cc5ccccc5F)c5cc(F)ccc45)nc(N)c32)n1)C(=O)O (stereo not shown) [Example 139B, 3-(2-{4-amino-5-cyclopropyl-2-[6-fluoro-1-(2-fluorobenzyl)-1H-indazol-3-yl]-6-oxo-6,7-dihydro-5H-pyrrolo[2,3-d]pyrimidin-5-yl}-1,3-oxazol-4-yl)-2,2-dimethylpropanoic acid] | 135% | 3460 nM | 0.114 nM | 
10 | CC(C)(Cn1cc(C2(C)C(=O)Nc3nc(-c4nn(Cc5ccccc5F)c5ncccc45)nc(N)c32)cn1)C(=O)O (stereo not shown) [Example 145A, 3-(4-{4-amino-2-[1-(2-fluoro-benzyl)-1H-pyrazolo [3,4-b]pyridin-3-yl]-5-methyl-6-oxo-6,7-dihydro-5H-pyrrolo[2,3-d]pyrimidin-5-yl}-1H-pyrazol-1-yl)-2,2-dimethyl-propanoic acid] | 82.9% | 391 nM | 0.299 nM | 
11 | Cc1ccc(F)c(Cn2nc(-c3nc(N)c4c(n3)NC(=O)C4(C)c3nc(CC(C)(C)C(=O)O)co3)c3ccc(Cl)cc32)c1 (stereo not shown) [Example 213A, 3-(2-{4-amino-2-[6-chloro-1-(2-fluoro-5-methyl-benzyl)-1H-indazol-3-yl]-5-methyl-6-oxo-6,7-dihydro-5H-pyrrolo[2,3-d]pyrimidin-5-yl} 1,3-oxazol-4-yl)-2,2-dimethyl-propanoic acid] | 94.9% | 839 nM | 0.123 nM | 
12 | CC(C)(Cc1coc(C2(C)C(=O)Nc3nc(-c4nn(CC5CCCCC5)c5cc(Cl)ccc45)nc(N)c32)n1)C(=O)O (stereo not shown) [Example 159A, 3-(2-{4-amino-2-[6-chloro-1-(cyclohexylmethyl)-1H-indazol-3-yl]-5-methyl-6-oxo-6,7-dihydro-5H-pyrrolo[2,3-d]pyrimidin-5-yl}-1,3-oxazol-4-yl)-2,2-dimethyl-propanoic acid] | 113% | 221 nM | 0.125 nM | 
13 | C[C@@]1(c2nc(CCC(=O)O)cs2)C(=O)Nc2nc(-c3nn(CCCC(F)(F)F)c4ncccc34)nc(N)c21 [Example 88B, (S)-3-(2-{4-amino-5-methyl-6-oxo-2-[1-(4,4,4-trifluorobutyl)-1H-pyrazolo[3,4-b]pyridin-3-yl]-6,7-dihydro-5H-pyrrolo[2,3-d]pyrimidin-5-yl}-1,3-thiazol-4-yl)propanoic acid] | 88% | 1250 nM | 0.848 nM | 
14 | Cc1cccc(Cn2nc(-c3nc(N)c4c(n3)NC(=O)C4(C)c3nc(CC(C)(C)C(=O)O)co3)c3ccc(Cl)cc32)c1F (stereo not shown) [Example 187A, 3-(2-{4-amino-2-[6-chloro-1-(2-fluoro-3-methyl-benzyl)-1H-indazol-3-yl]-5-methyl-6-oxo-6,7-dihydro-5H-pyrrolo[2,3-d]pyrimidin-5-yl}-1,3-oxazol-4-yl)-2,2-dimethyl-propanoic acid] | 97.1% | 244 nM | 0.029 nM | 

Next, values leading:

Row | Emax (sGC α1/β1 heterodimer) | EC50 (sGC α1/β1 heterodimer) | Ki [1] | % Activation (sGC α1/β1 heterodimer; activity expressed as percentage of compound A (standard)) | Structure (SMILES)
15 | 107% | 3100 nM | 1.11 nM |  | C[C@@]1(c2ccc(CCc3nn[nH]n3)cc2)C(=O)Nc2nc(-c3nn(Cc4ccccc4F)c4ccccc34)nc(N)c21 [Example 242B, (S)-4-amino-2-[1-(2-fluoro-benzyl)-1H-indazol-3-yl]-5-methyl-5-{4-[2-(2H-tetrazol-5-yl)ethyl]phenyl}-5,7-dihydro-6H-pyrrolo[2,3-d] pyrimidin-6-one]
16 | 95% | 64 nM | 0.079 nM |  | CC(C)(Cc1coc(C2(C)C(=O)Nc3nc(-c4nn(CC5CCCCC5)c5ccccc45)nc(N)c32)n1)C(=O)O (stereo not shown) [Example 228A, 3-(2-{4-amino-2-[1-(cyclohexyl-methyl)-1H-indazol-3-yl]-5-methyl-6-oxo-6,7-dihydro-5H-pyrrolo[2,3-d]pyrimidin-5-yl}-1,3-oxazol-4-yl)-2,2-dimethyl-propanoic acid]
17 |  | 821 nM | 0.185 nM |  | CC(C)(Cc1coc(C2(C)C(=O)Nc3nc(-c4nn(CC5CCCCO5)c5ccccc45)nc(N)c32)n1)C(=O)O (single isomer, unassigned) [Example 230AA, 3-{2-[4-amino-5-methyl-6-oxo-2-{1-[tetrahydro-2H-pyran-2-ylmethyl]-1H-indazol-3-yl}-6,7-dihydro-5H-pyrrolo[2,3-d]pyrimidin-5-yl]-1,3-oxazol-4-yl}-2,2-dimethyl-propanoic acid]
18 | 123% | 1010 nM | 0.199 nM |  | CC1(c2ccc(C(=O)O)cn2)C(=O)Nc2nc(-c3nn(Cc4ccccc4F)c4cc(Cl)ccc34)nc(N)c21 (stereo not shown) [Example 254A, 6-{4-Amino-2-[6-chloro-1-(2-fluorobenzyl)-1H-indazol-3-yl]-5-methyl-6-oxo-6,7-dihydro-5H-pyrrolo[2,3-d]pyrimidin-5-yl}pyridine-3-carboxylic acid]
19 | 93.3% | 5870 nM | 0.193 nM |  | C[C@@]1(c2ccc(CCc3nn[nH]n3)cc2)C(=O)Nc2nc(-c3nn(CCC(F)(F)C(F)(F)F)c4cc(Cl)ccc34)nc(N)c21 (single isomer, unassigned) [Example 237B]
20 |  | 770 nM | 0.496 nM | 114.6% | CC(C)(Cc1csc([C@]2(C)C(=O)Nc3nc(-c4nn(CC5CCCCO5)c5ccccc45)nc(N)c32)n1)C(=O)O (single isomer, unassigned) [Example 229AA]
21 | 82.4% | 27 nM | 0.097 nM |  | CC1(N2CCC(CCC(=O)O)CC2)C(=O)Nc2nc(-c3nn(Cc4ccccc4F)c4cc(Cl)ccc34)nc(N)c21 (stereo not shown) [Example 262B, 3-(1-{4-Amino-2-[6-chloro-1-(2-fluorobenzyl)-1H-indazol-3-yl]-5-methyl-6-oxo-6,7-dihydro-5H-pyrrolo[2,3-d]pyrimidin-5-yl}piperidin-4-yl)propanoic acid]
